Tests used:
[1] = tested on: P. yoelii in mice and Anopheles stephensi; experiment: In vivo transmission-blocking mosquito feeding assay; conditions: for No. of mosquitoes infected/total no. of mosquitoes (%): untreated 82.8; for No. of oocysts per mosquito: untreated 106; for Mean % parasitemia ± SD: day 4 p.i. in mice prior to mosquito feeding, untreated 0.97 ± 0.17; for Mean % gametocytemia ± SD: day 4 p.i. in mice, untreated 0.05 ± 0.004
Protocol: Experimental mice were infected by i.p. inoculations of 10^7 erythrocytes parasitized with P. yoelii GOMO 15 to test the effect of M1 following two different protocols of drug treatment. Infected mice were randomly allocated into 6 groups (5 mice per group) corresponding to the 3 conditions (control [solvent], M1 50 mg/kg, and PQ 50 mg/kg) in both drug administration protocols. For the first protocol, mice were treated daily from day zero to day 3, while for the second protocol, treatment was administered only once, 4 days after the infection and 2 h before mosquito feeding ([37]). At day 3 p.i., the presence and maturity of gametocytes was checked by microscopic examination of Giemsa-stained thin blood films and live-blood observation to assess microgamete exflagellation density. Mice were then anesthetized and placed according to the treatment on the top of individual cages containing 100 glucose-starved Anopheles stephensi female mosquitoes, which were allowed to feed for 1 h. Unfed mosquitoes were removed from the cages. Seven days after the infectious blood meal, 30 mosquitoes were dissected and their midguts examined using a phase-contrast microscope (400×) to assess the presence of oocysts. Two weeks after the blood meal, the salivary glands of 30 mosquitos were dissected to estimate the average number of sporozoites per mosquito in each group.

hERG channel = molecular target: T1, hERG channel (Homo sapiens, UniProt Q12809); experiment: Predictor hERG fluorescence polarization binding assay; conditions: 0.01 nM to 100 µM
T1 construct: purchased ThermoFischer PV5665
Protocol: hERG channel binding was determined with the PredictorTM hERG Fluorescence Polarization Assay (PV5665 ThermoFischer). Briefly, reagents were thawed, and were mixed by pipetting 20x with PredictorTM hERG membranes. The fluorescent tracer was diluted at 4 nM in the PredictorTM hERG buffer. […] The assay was performed in a 96-well Greiner microplate (675093 Dutscher). 25 µL of each concentration of M1 were dispensed into the plate. Then, 50 µL of the PredictorTM hERG membranes and 25 µL of the fluorescent tracer 4 nM were added. The plate was incubated at room temperature for 4 h. The fluorescence polarization measurements were made using a Synergy 2 microplate reader (Biotek Instrument, Colmar, France). Both parallel and perpendicular fluorescence were measured using 530/25 nm excitation and 590/35 nm emission filters with a 570 nm dichroic mirror. The gain was fixed at 110. A known hERG channel blocker (E-4031), provided by the kit, was assayed as positive reference. Both E-4031 and M1 were tested at final concentrations ranging from 0.01 nM to 100 µM. IC50 values were determined graphically by plotting the % inhibition versus the logarithm of 9 M1 concentrations in the assay solution using the GraphPad Prism software (version 6.01, GraphPad Software, La Jolla, CA, USA).

[2] = tested on: P. falciparum liver-stage parasites in human primary hepatocytes; experiment: In vitro liver-stage development, P. falciparum in human primary hepatocytes; format: cell-based, Plasmodium falciparum
Description: (§1) Primary human hepatocytes were isolated from liver segments obtained from adult patients undergoing partial hepatectomy (Service de Chirurgie Digestive, Hépato-Bilio Pancréatique, Hôpital Pitié Salpêtrière, Paris, France). Primary simian hepatocytes were isolated from liver segments collected from healthy Macaca fascicularis monkeys from CEA, Fontenay aux Roses, France. All hepatocytes were obtained using collagenase perfusion as previously described ([40]). […] Primary murine hepatocytes were isolated from liver segments collected from BALB/c mice. Human and murine hepatocytes were used directly after their isolation. Cells were seeded in 96-well plates (Falcon; Becton Dickinson Labware Europe, France) coated with collagen I (BD Bioscience, USA) at a density of 80,000 cells per well. […] For human hepatocytes, the complete medium was supplemented with 2% dimethyl sulfoxide (DMSO; Sigma-Aldrich, USA) before infection to preserve their differentiation.
(§2) On the day of infection, 3 · 10^4 sporozoites of P. falciparum, P. yoelii, and P. cynomolgi were added to their respective host cell cultures (human, murine, and simian). The infected culture plates were centrifuged for 10 min at 900 × g, allowing fast parasite sedimentation, and further incubated with serial dilutions of M1. Culture medium containing the appropriate drug concentration was refreshed daily, and cells were fixed at 48 h postinfection (p.i.) for infections with P. yoelii, 6 days p.i. for P. falciparum, or 8 days p.i. for P. cynomolgi. For the in vitro sporozoite invasion experiments, P. falciparum sporozoites were preincubated with 1, 10, and 100 μM M1 for 1 h at room temperature before hepatocyte infections. Three hours later, after sporozoite penetration into hepatocytes, cultures were washed and then further incubated with or without the presence of the drug during 6 days. DMSO was used as a negative control.
(§3) The number, size, and shape of the parasites were determined using a CellInsight high-content screening platform equipped with Studio HCS software (ThermoFisher Scientific). […] Host cell and parasite nuclei were labeled with DAPI (4′,6-diamidino-2-phenylindole). […] The custom script used for counting and measuring parasites first required identification of the objects based on a fluorescence intensity threshold. The object identity was then further validated based on size and morphological (shape) criteria. The presence of DAPI-associated fluorescence in the selected objects allowed their final selection and the rejection of false positives. […] The parasitic size reduction was calculated on the average object area using the total surface area of each selected object (μm^2).

[3] = tested on: P. cynomolgi liver-stage parasites in simian primary hepatocytes; experiment: In vitro liver-stage development, P. cynomolgi in simian primary hepatocytes; format: cell-based, Plasmodium cynomolgi
Description: as §1, §2, §3

[4] = 50 mg/kg i.p. every day D0 to D3
[5] = 50 mg/kg i.p. on day 3, 2 h before feeding

T1 sequence (Q12809 whole entry): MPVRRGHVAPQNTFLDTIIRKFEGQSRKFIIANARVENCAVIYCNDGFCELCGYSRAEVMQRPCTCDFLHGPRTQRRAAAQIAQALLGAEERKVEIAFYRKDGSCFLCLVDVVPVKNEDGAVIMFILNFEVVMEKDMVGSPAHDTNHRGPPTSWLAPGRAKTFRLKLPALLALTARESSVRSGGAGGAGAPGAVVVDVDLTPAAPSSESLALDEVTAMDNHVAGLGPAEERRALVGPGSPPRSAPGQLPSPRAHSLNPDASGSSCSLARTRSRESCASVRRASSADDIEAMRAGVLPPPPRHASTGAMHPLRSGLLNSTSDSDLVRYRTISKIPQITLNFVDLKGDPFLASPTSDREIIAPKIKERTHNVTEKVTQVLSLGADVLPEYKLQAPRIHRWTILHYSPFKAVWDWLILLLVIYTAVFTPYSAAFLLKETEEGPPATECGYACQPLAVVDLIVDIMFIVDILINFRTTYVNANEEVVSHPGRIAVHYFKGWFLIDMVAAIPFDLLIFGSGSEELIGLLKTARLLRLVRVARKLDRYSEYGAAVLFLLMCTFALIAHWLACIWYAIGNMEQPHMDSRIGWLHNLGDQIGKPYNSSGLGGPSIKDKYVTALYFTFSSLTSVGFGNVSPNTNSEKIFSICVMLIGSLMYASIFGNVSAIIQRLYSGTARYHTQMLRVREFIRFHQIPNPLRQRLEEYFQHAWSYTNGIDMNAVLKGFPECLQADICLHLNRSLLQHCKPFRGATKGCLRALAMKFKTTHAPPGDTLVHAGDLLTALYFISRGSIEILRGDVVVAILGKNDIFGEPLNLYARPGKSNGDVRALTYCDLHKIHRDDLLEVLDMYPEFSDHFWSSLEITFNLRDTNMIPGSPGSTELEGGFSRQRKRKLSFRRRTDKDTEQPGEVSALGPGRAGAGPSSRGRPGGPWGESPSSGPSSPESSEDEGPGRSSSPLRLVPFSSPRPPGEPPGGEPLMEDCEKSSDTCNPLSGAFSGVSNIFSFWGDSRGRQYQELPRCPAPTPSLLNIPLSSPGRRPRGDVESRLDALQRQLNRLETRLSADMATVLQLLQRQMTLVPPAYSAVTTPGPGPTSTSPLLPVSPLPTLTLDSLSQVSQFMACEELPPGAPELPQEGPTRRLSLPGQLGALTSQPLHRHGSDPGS

With `Cc1ccc(-c2cc3nc(NC(C)(C)C)[nH]c(=O)c3s2)cc1` [Metabolite M1, 2-(tert-Butylamino)-6-(p-tolyl)thieno[3,2-d]pyrimidin-4(3H)-one] the “reduction in parasitemia before mosquito feeding” value ([1]; 50 mg/kg during D0 to D3, day 4) was 50%, the “No. of mosquitoes infected/total no. of mosquitoes (%)” value [1, 4] was 25/35 (71.4) % and the “No. of oocysts per mosquito” value [1, 4] was 32. The “No. of mosquitoes infected/total no. of mosquitoes (%)” value [1, 5] was 13/35 (37.1) %, the “No. of oocysts per mosquito” value [1, 5] was 1 and the “Mean % parasitemia ± SD” value [1, 4] was 0.47 ± 0.24%. For the same molecule, the “Mean % parasitemia ± SD” value [1, 5] was 0.99 ± 0.34%, the “Mean % gametocytemia ± SD” value [1, 4] was 0.04 ± 0.009% and the “Mean % gametocytemia ± SD” value [1, 5] was 0.04 ± 0.01%. The “binding toward the hERG channel” value (hERG channel) was “no affinity”, the “concentration from which liver-stage development was fully inhibited” value ([2]; P. falciparum in human hepatocytes) was 14 µM and the EC50 ([2]; Plasmodium falciparum, Hepatocyte, P. falciparum in human primary hepatocytes (HH), mean ± SEM of triplicate experiments, read-out: EC50 against liver-stage parasites) was 450 ± 150 nM. For the same molecule, the “SI (selectivity index)” value ([2]; hepatocyte CC50/EC50, P. falciparum (HH)) was greater than 133, the “Size reduction at 10 μM (%)” value ([2]; parasite (schizont) size, 10 μM, P. falciparum (HH)) was 80% and the “concentration from which liver-stage development was fully inhibited” value ([3]; P. cynomolgi in simian hepatocytes) was 14 µM. For the same molecule, the EC50 ([3]; Plasmodium cynomolgi, Hepatocyte, P. cynomolgi in simian primary hepatocytes (SH), mean ± SEM of triplicate experiments, read-out: EC50 against liver-stage parasites) was 1500 ± 300 nM, the “activity on P. cynomolgi hypnozoites” value ([3]; all tested concentrations (0.1 to 50 μM)) was “not active” and the “SI (selectivity index)” value ([3]; hepatocyte CC50/EC50, P. cynomolgi (SH)) was greater than 40. For the same molecule, the “Size reduction at 10 μM (%)” value ([3]; parasite (schizont) size, 10 μM, P. cynomolgi (SH)) was 80%.

— paper PMC8557901 (Microbiology Spectrum, 2021)
